# Assays:
# primary CLL samples = experiment: TMT-tagging and mass-spectrometry profiling of relative protein abundance after compound exposure; format: cell-based, human
# Excerpt: Data import: Relative abundance (RA) data was imported into the R statistical programming environment v.3.1.2. Proteins with less than one spectral count in any of the three MS runs for each case scenario were filtered out and relative abundance was scale normalized to the same median by using normalizeBetweenArrays( ) function implemented in the limma package for Bioconductor (see Yang et al., Nucleic Acids Research, 30(4), e15 (2002)).
# Comparative analysis: RA scores were log 2-transformed to perform direct comparison of compounds exposure versus DMSO control and a paired moderated t-test (see Smyth, Statistical Applications in Genetics and Molecular Biology, 3(1), article 3 (2004)) was performed by using lmfit( ) and eBayes( ) functions form limma package to test differential relative abundance between experimental conditions. For differential analysis across cases, the log-2 fold changes of replicates for two of the case scenarios were considered.
# Linear regression analysis: Linear regression was modeled by using lm( ) function from the stats package. This function provided the correlation coefficients as well as the linear fitted model. Data were assessed for outliers detection within the linear model via the Studentized residuals method (implemented in outlierTest( ) function from car package) and deemed significant if their q-values were under a threshold of 0.05 (5%).
# The proteins subjected to the analysis were those with more than one spectral count matched in three MS runs representing each case scenario. A total of 6114, 6070, 5982 and 5382 proteins were retained for each case scenario. Differential expression analysis was applied to the high and consistent coverage of 4594 proteins quantified across all case scenarios. FIGS. 2A-2D show distribution of normalized relative abundances for each replicate of the four case scenarios (Cases B1-B4). The standard deviation of each replicate is represented as a stair-plot line at the bottom of the boxplot. FIGS. 3A-3D show heatmaps representing correlations of log 2 fold-changes of protein levels post compound treatment as compared with DMSO across conditions for all case scenarios. Low correlation of log 2 fold-changes at 6 hours may be due to the alteration of a small subset of proteins at an early time point without strong general effects across the proteome. Stronger correlations at 24 hours can be linked to a higher proportion of proteins perturbed reflecting downstream changes upon compound exposure.
# [1] = test system: samples from CLL patients; experiment: in vitro proliferation assays on samples from four groups of CLL patients; format: cell-based, human
# Excerpt: The samples used in this study were from four groups of CLL patients.
# CLL cell lines = experiment: Thymidine incorporation assay (cell proliferation); format: cell-based
# Experimental: After four days, cells were diluted 1:7 with fresh media, containing the same concentration of treatment compound. Three days later, ^3H-thymidine was added to label proliferating cells for 6-7 hours. Cells were then harvested onto filter plates for counting on a scintillation counter.
# PDE6D = experiment: Western blot of residual PDE6D protein level; format: cell-based; conditions: 1 μM Compound A vs 10 μM lenalidomide, 72 hours; EHEB, I83-E95, Mec2, CII, and CI
# Experimental: Cells were then harvested and processed for SDS-PAGE and western blot. PDE6D antibody was purchased from Pierce and used at 1:300. For western blot quantification, the band intensity was measured using an Odyssey imager and then normalized to β-actin loading controls. Scatter plot: […]
# [2] = Cmp A vs. len, Case B1, 10 μM, 24 hours
# [3] = Cmp A vs. len, Case B2, 10 μM, 24 hours
# [4] = Cmp A vs. len, Case B3, 10 μM, 24 hours
# [5] = FIG. 5 heatmap, 10 μM, 24 hours, vs DMSO
smiles,measurement,setting,value
"Cc1nc2cccc(N)c2c(=O)n1C1CCC(=O)NC1=O (stereo not drawn) [Compound A, 3-(5-amino-2-methyl-4-oxo-4H-quinazolin-3-yl)-piperidine-2,6-dione]","protein abundance levels of SELL, SNX20 and KLF13 upon exposure","primary CLL samples; 10 μM, 24 hours",down-regulated
same,level of WIZ (widely-interspaced zinc-finger) upon exposure,primary CLL samples; Case B1,decreased
same,"RA upon Cmp A vs. len Treatment, IKZF1 (Q13422)","primary CLL samples; Case B1, 10 μM, 24 hours",Lower
same,"RA upon Cmp A vs. len treatment, BCL2L1 (Q07817)","primary CLL samples; Case B1, 10 μM, 24 hours",Higher
same,"RA upon Cmp A vs. len treatment, GZMB (P10144)","primary CLL samples; Case B1, 10 μM, 24 hours",Lower
same,"RA upon Cmp A vs. len treatment, IGHM (P01871-2)","primary CLL samples; Case B1, 10 μM, 24 hours",Lower
same,"RA upon Cmp A vs. len treatment, IKZF1 (Q13422-2)","primary CLL samples; Case B1, 10 μM, 24 hours",Lower
same,"RA upon Cmp A vs. len treatment, IRF8 (Q02556)","primary CLL samples; Case B1, 10 μM, 24 hours",Lower
same,"RA upon Cmp A vs. len treatment, KLF13 (Q9Y2Y9)","primary CLL samples; Case B1, 10 μM, 24 hours",Lower
same,"RA upon Cmp A vs. len treatment, LGALS9 (O00182)","primary CLL samples; Case B1, 10 μM, 24 hours",Lower
same,"RA upon Cmp A vs. len treatment, MARCKS (P29966)","primary CLL samples; Case B1, 10 μM, 24 hours",Higher
same,"RA upon Cmp A vs. len treatment, NDE1 (Q9NXR1)","primary CLL samples; Case B1, 10 μM, 24 hours",Higher
same,"RA upon Cmp A vs. len treatment, NFKBIE (O00221)","primary CLL samples; Case B1, 10 μM, 24 hours",Lower
same,"RA upon Cmp A vs. len treatment, PTK2B (Q14289-2)","primary CLL samples; Case B1, 10 μM, 24 hours",Higher
same,"RA upon Cmp A vs. len treatment, SAMSN1 (Q9NSI8)","primary CLL samples; Case B1, 10 μM, 24 hours",Higher
same,"RA upon Cmp A vs. len treatment, SELL (P14151-2)","primary CLL samples; Case B1, 10 μM, 24 hours",Lower
same,"RA upon Cmp A vs. len treatment, SLAMF1 (Q13291)","primary CLL samples; Case B1, 10 μM, 24 hours",Higher
same,"RA upon Cmp A vs. len treatment, SNX20 (Q7Z614)","primary CLL samples; Case B1, 10 μM, 24 hours",Lower
same,"RA upon Cmp A vs. len treatment, SOD2 (P04179)","primary CLL samples; Case B1, 10 μM, 24 hours",Higher
same,"RA upon Cmp A vs. len treatment, TCF7 (P36402-3)","primary CLL samples; Case B1, 10 μM, 24 hours",Lower
same,"RA upon Cmp A vs. len treatment, TRAF1 (Q13077)","primary CLL samples; Case B1, 10 μM, 24 hours",Higher
same,"RA upon Cmp A vs. len treatment, WIZ (M0QXA7)","primary CLL samples; Case B1, 10 μM, 24 hours",Lower
same,"RA upon Cmp A vs. len treatment, ZBTB10 (Q96DT7)","primary CLL samples; Case B1, 10 μM, 24 hours",Higher
same,"RA upon Cmp A vs. len Treatment, IKZF1 (Q13422)","primary CLL samples; Case B2, 10 μM, 24 hours",Lower
same,"RA upon Cmp A vs. len Treatment, IKZF3 (Q9UKT9)","primary CLL samples; Case B2, 10 μM, 24 hours",Lower
same,abundance levels of GBP2 and GBP4 upon exposure,primary CLL samples; Case B3,increased abundance levels
same,"RA upon Cmp A vs. len Treatment, CD40 (P25942)","primary CLL samples; Case B3, 10 μM, 24 hours",Higher
same,"RA upon Cmp A vs. len Treatment, CR2 (P20023-3)","primary CLL samples; Case B3, 10 μM, 24 hours",Higher
same,"RA upon Cmp A vs. len Treatment, CTSS (P25774)","primary CLL samples; Case B3, 10 μM, 24 hours",Higher
same,"RA upon Cmp A vs. len Treatment, GBP1 (P32455)","primary CLL samples; Case B3, 10 μM, 24 hours",Higher
same,"RA upon Cmp A vs. len Treatment, IKZF1 (Q13422)","primary CLL samples; Case B3, 10 μM, 24 hours",Lower
same,"RA upon Cmp A vs. len Treatment, IKZF3 (Q9UKT9)","primary CLL samples; Case B3, 10 μM, 24 hours",Lower
same,"RA upon Cmp A vs. len Treatment, ISG20 (Q96AZ6)","primary CLL samples; Case B3, 10 μM, 24 hours",Higher
same,"RA upon Cmp A vs. len Treatment, SASH1 (O94885)","primary CLL samples; Case B3, 10 μM, 24 hours",Higher
same,"RA upon Cmp A vs. len Treatment, SEMA7A (O75326)","primary CLL samples; Case B3, 10 μM, 24 hours",Higher
same,"RA upon Cmp A vs. len treatment, PTK2B (Q14289-2)","primary CLL samples; Case B3, 10 μM, 24 hours",Higher
same,"RA upon Cmp A vs. len treatment, SAMSN1 (Q9NSI8)","primary CLL samples; Case B3, 10 μM, 24 hours",Higher
same,"RA upon Cmp A vs. len treatment, SELL (P14151-2)","primary CLL samples; Case B3, 10 μM, 24 hours",Lower
same,"RA upon Cmp A vs. len treatment, SLAMF1 (Q13291)","primary CLL samples; Case B3, 10 μM, 24 hours",Higher
same,"RA upon Cmp A vs. len treatment, SOD2 (P04179)","primary CLL samples; Case B3, 10 μM, 24 hours",Higher
same,"RA upon Cmp A vs. len treatment, TRAF1 (Q13077)","primary CLL samples; Case B3, 10 μM, 24 hours",Higher
same,IRF5 protein level,primary CLL samples; Case B4 (not quantified in B2),exclusively decreased
same,"RA upon Cmp A vs. len Treatment, PDE6D (O43924)","primary CLL samples; Case B4, 10 μM, 24 hours",Lower
same,logFC BCL2L1 (Q07817),primary CLL samples; [2],0.5326
same,logFC GZMB (P10144),primary CLL samples; [2],−1.175
same,logFC IGHM (P01871-2),primary CLL samples; [2],−0.6625
same,logFC IKZF1 (Q13422),primary CLL samples; [2],−1.709
same,logFC IKZF1 (Q13422-2),primary CLL samples; [2],−2.169
same,logFC IRF8 (Q02556),primary CLL samples; [2],−0.5643
same,logFC KLF13 (Q9Y2Y9),primary CLL samples; [2],−1.092
same,logFC LGALS9 (O00182),primary CLL samples; [2],−0.5646
same,logFC MARCKS (P29966),primary CLL samples; [2],1.438
same,logFC NDE1 (Q9NXR1),primary CLL samples; [2],0.7281
same,logFC NFKBIE (O00221),primary CLL samples; [2],−0.7408
same,logFC PTK2B (Q14289-2),primary CLL samples; [2],0.9815
same,logFC SAMSN1 (Q9NSI8),primary CLL samples; [2],0.6554
same,logFC SELL (P14151-2),primary CLL samples; [2],−1.823
same,logFC SLAMF1 (Q13291),primary CLL samples; [2],0.9251
same,logFC SNX20 (Q7Z614),primary CLL samples; [2],−0.5611
same,logFC SOD2 (P04179),primary CLL samples; [2],0.6081
same,logFC TCF7 (P36402-3),primary CLL samples; [2],−0.7071
same,logFC TRAF1 (Q13077),primary CLL samples; [2],0.768
same,logFC WIZ (M0QXA7),primary CLL samples; [2],−0.4839
same,logFC ZBTB10 (Q96DT7),primary CLL samples; [2],0.9382
same,logFC IKZF1 (Q13422),primary CLL samples; [3],−2.186
same,logFC IKZF3 (Q9UKT9),primary CLL samples; [3],−2.626
same,logFC CD40 (P25942),primary CLL samples; [4],0.8064
same,logFC CR2 (P20023-3),primary CLL samples; [4],0.7925
same,logFC CTSS (P25774),primary CLL samples; [4],0.5932
same,logFC GBP1 (P32455),primary CLL samples; [4],1.117
same,logFC IKZF1 (Q13422),primary CLL samples; [4],−2.686
same,logFC IKZF3 (Q9UKT9),primary CLL samples; [4],−1.425
same,logFC ISG20 (Q96AZ6),primary CLL samples; [4],0.6234
same,logFC PTK2B (Q14289-2),primary CLL samples; [4],0.8361
same,logFC SAMSN1 (Q9NSI8),primary CLL samples; [4],0.89
same,logFC SASH1 (O94885),primary CLL samples; [4],0.7177
same,logFC SELL (P14151-2),primary CLL samples; [4],−1.03
same,logFC SEMA7A (O75326),primary CLL samples; [4],0.904
same,logFC SLAMF1 (Q13291),primary CLL samples; [4],1.086
same,logFC SOD2 (P04179),primary CLL samples; [4],0.6319
same,logFC TRAF1 (Q13077),primary CLL samples; [4],0.7523
same,logFC PDE6D (O43924),"primary CLL samples; Cmp A vs. len, Case B4, 10 μM, 24 hours",−1.494
same,IKZF1 (Ikaros) protein level,primary CLL samples; [5],decreases across all experimental conditions with stronger effect upon Compound A exposure
same,levels of Group 4 proteins (6 proteins including IKZF3 and a second IKZF1 isoform) upon exposure,primary CLL samples; [5],decrease significantly
same,"protein abundance levels of Group 3 proteins (SMNX20, SELL, KLF13, WIZ, IKZF1, NFKBIE, TCF7 and IRF8) upon exposure",primary CLL samples; [5],decrease
same,"STAT1 protein abundance, log 2 fold-change vs DMSO",primary CLL samples; resistant scenario (Case B4),−0.018
same,"STAT1 protein abundance, log 2 fold-change vs DMSO",primary CLL samples; sensitive patient sample (Case B3),0.547
same,effect on cell proliferation,[1]; samples from the fourth group of patients (Case B4),neither Compound A nor lenalidomide had any effect on cell proliferation
same,effect on cell proliferation,[1]; samples from the second group of patients (Case B2),stronger proliferation reduction effect than lenalidomide
same,effect on cell proliferation,[1]; samples from the third group of patients (Case B3),reduced cell proliferation
same,cell growth inhibition,"CLL cell lines; 1 μM Compound A vs 10 μM lenalidomide, EHEB, I83-E95, Mec2, CII, and CI",more cell growth inhibition
same,responsiveness of cell lines to treatment,CLL cell lines; Bucket #1 (EHEB and I83-E95),responsive to both compounds
same,responsiveness of cell lines to treatment,"CLL cell lines; Bucket #2 (Mec2, CII, and CI)",more sensitive to Compound A than to lenalidomide
same,responsiveness of cell lines to treatment,"CLL cell lines; Bucket #3 (WA-C3-CD5, WA-OSEL, Mec1, and PGA1)",responsive to Compound A
same,responsiveness of cell lines to treatment,CLL cell lines; Bucket #4 (HG3),not responsive to either Compound A or lenalidomide
same,PDE6D reduction,PDE6D,more PDE6D reduction

# From US20170038387A1, “METHODS FOR TREATING CHRONIC LYMPHOCYTIC LEUKEMIA AND THE USE OF BIOMARKERS AS A PREDICTOR OF CLINICAL SENSITIVITY TO IMMUNOMODULATORY THERAPIES” (Celgene Corporation, priority 2015, published 2017)
